# Assays:
# U2OS-SCR reporter cells = assay: HR/SCR reporter assay (GFP-positive cells by flow cytometry and fluorescence microscopy); format: cell-based; conditions: for CO-mediated HR (GFP-positive cells) under ATM/ATR blockade: inhibitor 20 μM 1 hour prior to CO 250 ppm for 24 hours; for number of GFP-positive cells (HR repair of DSB): U2OS-SCR cells transfected with SceI 24 hours, then treated 24 hours, CO 250 ppm
# Description: To test this, the U20S cell line containing the HR/SCR (homologous recombination/sister chromatid recombination) reporter was used as previously described (12,13). I-SceI endonuclease was used to introduce a double strand break (DSB) within the reporter in U2OS cells. The efficiency of homologous recombination induced by I-SceI correlated with generation of wild type GFP by gene conversion.
# (§1) Many of the effects observed with HO-1 are mediated by one or more of its enzymatic products biliverdin or CO. Therefore, the role of biliverdin and CO was tested separately in HR during DSB and DNA repair. U2OS-SCR reporter cells after transfection with SceI for 24 hours were treated with CO 250 (ppm) for 24 hours. […] No effects of CO were observed on NHEJ-mediated DNA repair as measured by number of XHATM-resistant colonies.
# (§2) Lysates of PC3 and HEK cells were treated with CO (250 ppm) for 2′ to 1 h. […] Therefore, the two major DNA repair kinases, ATM and ATR, were examined to see if they are implicated in accelerated HR in the presence of CO or HO-1. […] U20S-SCR reporter cells were transfected with SceI for 24 hours and treated with CGK733 (20 μM) or DMSO for 1 hour prior treatment with CO (250 ppm) for 24 hours. U20S-SCR reporter cells were co-transfected with SceI for 24 hours and KU55933 (20 μM) or DMSO for 1 hour prior treatment with CO (250 ppm) was applied for following 24 hours. […] U20S-SCR reporter cells were co-transfected with SceI and HO-1 for 24 hours and CGK733 was applied for following 24 hours.
# (§3) U203 HR/SCR cells were maintained in the DMEM medium (Gibco, Invitrogen) containing 10% FBS and antibiotics. pPHW1 cells (NHEJ model) were maintained in the DMEM medium with 10% FBS and antibiotics. Mouse kidney fibroblasts were obtained from adult Hmox1^−/− and Hmox1^+/+ mice and culture between passages 4-7 in DMEM medium supplemented with 10% FBS and antibiotics. HEK293 were purchased from ATCC and were cultured following manufacturer's protocol. For CO in vitro studies, cells were exposed to 250 ppm CO, 5% CO2 in […] for 2 minutes to 24 hours. Cells were irradiated with 10 Gy and harvested at different time points after single exposure.
# HR/SCR reporter U20S cells were used as previously described. Briefly, GFP+ cells were analyzed 2 days postransfection by flow cytometry (FACScan, BD Biosciences) and fluorescence microscopy. Images of GFP-positive cells were captured of randomized fields using a Zeiss Apotome fluorescent microscope.
# [1] = system: lung and intestine gene expression; assay: Gene expression in tissues of mice exposed to inhaled CO (real time PCR); format: in vivo
# Method: This is important given that the lung has such a high rate of cellular turnover. The increase in expression of these genes is associated with decreased senescence and extension of life span.
# Male C57Bl/6 mice were exposed to inhaled carbon monoxide at 250 parts per million (ppm) for 1 hour. […] Real time PCR for telomerase in lungs, and topoisomerase (responsible for unwinding of DNA) and p16 (cell cycle suppressor) in intestines was performed, and expression was compared to air-exposed controls (FIG. 10). Results represent mean±SD of at least 3 mice/group, * p<0.05.
# irradiated mice = assay: Radiation-induced model of DNA damage (lethal irradiation, 10 Gy); format: in vivo
# Method: To support the observations with chemical genotoxins, a radiation-induced model of DNA damage was also used. Endogenous HO-1 is induced early in response to IR or doxorubicin and its expression is sustained for 24-72 hours in the spleen, liver and kidney (FIGS. 7A-B). Kidneys and spleen were harvested after 2 hours after irradiation. To evaluate the role of exogenous CO, mice were pretreated with CO for 1 hour prior to either a lethal or sublethal dose of irradiation and then daily for 1 hour. Spleens and intestines of mice were pretreated with Air or CO (250 ppm) 1 hour prior lethal dose of irradiation (10 Gy) and treated daily with CO for 11 days. […] Tissues were harvested 2 hours after irradiation. To evaluate the role of H2AX signaling in CO effects on DNA repair, marginal bone marrow transplantation of BM cells from H2ax^−/− and H2ax^+/+ mice into wild type irradiated recipients was used. Mice were treated with CO prior lethal dose of irradiation (10 Gy) and thereafter after receiving BM.
# Male C57BL/6 mice 7-9 weeks of age were purchased from Jackson Laboratories (Bar Harbor, Me.). Mice were held under SPF conditions and the experiments were approved by the IACUC at BIDMC. Mice were irradiated with 10 Gy (lethal dose) or 5 Gy (sublethal dose) and the protocol was approved by Radiation Safety Officer at BIDMC and the IACUC. Mice were exposed in plexiglass chamber to CO for 1 hour, 250 ppm prior irradiation and thereafter every day for 1 hour.
# Mice were lethally irradiated and transplanted with […] i.v. immediately after irradiation. The amount of injected BM was sufficient for recovery of 40% mice.
# HEK cells = assay: Immunoblot of DNA repair signaling after CO exposure; format: cell-based; conditions: CO 250 ppm, 2 minutes to 1 h
# Method: as §2, §3
# pPHW1 cells (NHEJ model) = assay: NHEJ-mediated DNA repair (number of XHATM-resistant colonies); format: cell-based
# Method: as §1, §3
# H2AXγ foci in tissues = assay: DNA damage (H2AXγ foci) in tissues of nude mice with PC3 tumors treated with doxorubicin ± CO; format: in vivo
# Method: Based on the effects observed in vitro, the salutary effects of CO were tested in an in vivo model of DNA damage in mice. Tissues were harvested 14 days after treatment of nude mice with established PC3 tumors (2 weeks) with […] (Control) or doxorubicin (8 mg/kg, twice per week, i.v.)±CO (daily, 1 hour, 250 ppm). Doxorubicin was employed to induce DNA damage in the tissues during chemotherapeutic treatment of tumor xenografts in nude mice.
# Nu/nu mice were purchased from Taconic (Hudson, N.Y.) at 7 weeks of age. Those mice were used in a complementary experiment of a subcutaneous tumor model of PC3 cells injected into the right flank of mice. Doxorubicin (8 mg/kg, Sigma) was given i.v. twice per week and mice were exposed to CO daily (250 ppm for 1 hour). Tissues were harvested after 2 weeks of treatment.
# HEK293 cells = assay: Western blot of DNA repair signaling in HEK293 cells treated with genotoxins; format: cell-based; conditions: 2 min to 2 h
# Method: The direct effects of HO-1 was tested on signaling pathways in response to the DNA damaging agents, doxorubicin, camptothecin, or irradiation in loss and gain of function studies with HO-1. HEK293cells express high basal levels of HO-1 due to presence of large T antigen. HEK293 cells were transduced with micro-adapted shRNA to stably deplete HO-1 and then exposed to camptothecin, doxorubicin or irradiation. HEK293 cells with stable knockdown of HO-1 (mirHO-1) and control cells were treated with camptothecin (1 μg/ml) for 2′-2 h. The levels of HO-1 and DNA repair signaling proteins activation was measured by Western blot.
# The status of the major DNA repair kinases, ATR, and ATM and their downstream targets was evaluated in HEK293 cells treated with camptothecin.
# HEK mirHO-1 and control cells treated with doxorubicin (10 μg/ml) for 2′-2 h is shown. […] Akt is a loading control for the immunoblot for P-p53.
# [2] = system: fibroblasts from Hmox1+/+ and Hmox1−/− mice; assay: H2AX phosphorylation / γ-H2AX foci in mouse fibroblasts treated with genotoxins; format: cell-based; conditions: doxorubicin 10 μg/ml, camptothecin 1 μg/ml; for phosphorylation of histone H2AX and γ-H2AX foci: Hmox+/+ fibroblasts
# Method: Representative pictures are shown from at least two independent experiments in duplicates. Fibroblasts were treated with doxorubicin (10 μg/ml) for 2-4 hr.
# as §3
# [3] = CO 250 ppm 1 hour, harvested immediately, versus air
# [4] = CO 1 hour, harvested at 24 hours
compound,measurement,setting,value
O=c1cc(-c2cccc3c2Sc2ccccc2S3)oc(N2CCOCC2)c1 [KU55933],CO-mediated HR (GFP-positive cells) under ATM/ATR blockade,U2OS-SCR reporter cells,significantly decreased
"C=CC1=C(C)/C(=C/C2=NC(=C\c3[nH]c(/C=C4\NC(=O)C(C)=C4C=C)c(C)c3CCC(=O)O)/C(CCC(=O)O)=C2C)NC1=O [Biliverdin, biliverdin]",number of GFP-positive cells (HR repair of DSB),U2OS-SCR reporter cells,no effect
O=C(NC(NC(=S)Nc1ccc(F)c([N+](=O)[O-])c1)C(Cl)(Cl)Cl)C(c1ccccc1)c1ccccc1 (centres unmarked) [CGK733],HO-1-induced HR (GFP-positive cells) in presence of inhibitor,"U2OS-SCR reporter cells; co-transfected with SceI and HO-1 for 24 hours, inhibitor applied following 24 hours",did not increase HR
same,CO-mediated HR (GFP-positive cells) under ATM/ATR blockade,U2OS-SCR reporter cells,significantly decreased
"[C-]#[O+] [CO, carbon monoxide]",number of GFP-positive cells (HR repair of DSB),U2OS-SCR reporter cells,significantly increased
same,expression of p16 in intestines,[1]; [3],increases expression
same,expression of telomerase in lungs,[1]; [3],increases expression
same,expression of topoisomerase in intestines,[1]; [3],increases expression
same,expression of SIRT1 in the lung,[1]; [4],increased expression
same,expression of TERT in the lung,[1]; [4],increased expression
same,sustained H2AXγ foci formation in spleen and intestine,"irradiated mice; CO 250 ppm 1 hour prior to 10 Gy, then daily for 11 days",significant inhibition
same,"P-p53, P-Brca1, P-ATM and early P-H2AX in peripheral blood mononuclear cells and bone marrow","irradiated mice; CO 1 hour prior to irradiation, tissues harvested 2 hours after irradiation, versus air",strong induction
same,"survival rate, mice alive >10 days","irradiated mice; lethal irradiation, CO 250 ppm 1 hour prior and daily, n=6/group, p=0.031 versus air (50%)",80%
same,CO-mediated protection against irradiation-induced death with H2ax−/− donor BM,irradiated mice; marginal bone marrow transplantation into wild type recipients irradiated with 10 Gy,reversed
same,"phosphorylation of Brca1, ATR and ATM",HEK cells,induced rapid phosphorylation
same,"NHEJ-mediated DNA repair, number of XHATM-resistant colonies",pPHW1 cells (NHEJ model),No effects
same,severity of doxorubicin-induced DNA damage (H2AXγ) in all organs,"H2AXγ foci in tissues; CO daily, 1 hour, 250 ppm, with doxorubicin",significantly decreased
CC[C@@]1(O)C(=O)OCc2c1cc1n(c2=O)Cc2cc3ccccc3nc2-1 [camptothecin],phosphorylation of H2AX,"HEK293 cells; wild-type HEK293 cells, camptothecin 1 μg/ml",induced phosphorylation
same,phosphorylation of histone H2AX and γ-H2AX foci,[2],strong increase
"COc1cccc2c1C(=O)c1c(O)c3c(c(O)c1C2=O)C[C@@](O)(C(=O)CO)C[C@@H]3O[C@H]1C[C@H](N)[C@H](O)[C@H](C)O1 [Doxorubicin, doxorubicin]","phosphorylation of ATM, p53 and H2AX","HEK293 cells; HEK293 cells, doxorubicin 10 μg/ml",increase
same,γ-H2AX foci formation,[2]; Hmox1−/− fibroblasts,no γ-H2AX foci formation
same,phosphorylation of histone H2AX and γ-H2AX foci,[2],strong increase
same,DNA damage by accumulation of H2AXγ foci,"H2AXγ foci in tissues; doxorubicin 8 mg/kg i.v. twice per week, 14 days, lung, liver, kidney and colon",substantial DNA damage

# Source: patent US9987302B2, “Methods of treating DNA damage” (priority 2011, dated 2018)
